Earlier results in patent publication US20080102081A1, “Preparations and applications for treatment of high cholesterol levels” (priority 2006, published 2008).

Legend:
[1] = denominator of prescription volume
[2] = clinical trials, patients at lower dosages

| elevation of hepatic enzyme activity [2] [%] | Compound | fatal rhabdomyolysis rate [1] |
| --- | --- | --- |
| – | COCc1c(C(C)C)nc(C(C)C)c(/C=C/[C@@H](O)C[C@@H](O)CC(=O)O)c1-c1ccc(F)cc1 [Cerivastatin] | 3.16 fatal cases/million prescriptions |
| 0.7 | CC(C)c1c(C(=O)Nc2ccccc2)c(-c2ccccc2)c(-c2ccc(F)cc2)n1CC[C@@H](O)C[C@@H](O)CC(=O)O [Atorvastatin] | – |
